Results published in patent US20060194837A1, “Tetrahydroisoquinoline compounds” (priority 2004, published 2006).
Where two headings read alike, the source gives them in different places.

Assays:
human H3 receptor [1] = target: T1, human H3 receptor (Homo sapiens, UniProt Q9Y5N1); experiment: H3 receptor binding (N-[3H]-α-methylhistamine displacement); conditions: membranes of SK-N-MC cells expressing cloned human H3 receptor, 0.8 nM N-[3H]-α-methylhistamine, 60 min at 25° C.
T1 construct: expressed in transfected cells

Rat SERT = target: T2, Rat SERT (Rattus norvegicus, UniProt P31652); experiment: Rat brain SERT binding ([3H]-citalopram displacement); conditions: rat brain membranes without cerebellum, 0.6 nM [3H]-citalopram, 60 min at 25° C.
T2 construct: A rat brain without cerebellum (Zivic Laboratories, Inc.—Pittsburgh, Pa.) was homogenized; tissue Zivic Laboratories, Inc; host or cells: rat brain without cerebellum, membranes
Procedure: The supernatant was removed and re-centrifuged at 15,000 rpm for 30 min. […] Membranes were incubated with 0.6 nM [^3H]-Citalopram plus/minus test compounds for 60 min at 25° C. and harvested by rapid filtration over GF/C glass fiber filters (pretreated with 0.3% polyethylenimine) followed by four washes with ice-cold buffer.

human SERT = target: T3, human SERT (Homo sapiens, UniProt P31645); experiment: Human SERT binding (3H-citalopram displacement); conditions: HEK293 membranes expressing human SERT, rt 1 h
T3 construct: expressed in transfected cells; host or cells: HEK293 membranes
Procedure: Homogenized HEK293 (Human Embryonic Kidney) membranes expressing the human SERT were incubated with ^3H-citalopram (SERT) at rt for 1 h in 50 mM Tris, 120 mM NaCl, 5 mM KCl (pH 7.4). […] The membranes were washed and the radioactivity was counted as above.

human H3 receptor [2] = target: T1, human H3 receptor; experiment: Cyclic AMP accumulation (β-galactosidase reporter, Schild analysis); format: cell-based; conditions: histamine agonist, forskolin 5 μM, Schild regression of pEC50 values
Procedure: Sublines of SK-N-MC cells were created that expressed a reporter construct and the human H3 receptor. The reporter gene (β-galactosidase) is under the control of multiple cyclic AMP responsive elements. In 96-well plates, histamine was added directly to the cell media followed 5 min later by an addition of forskolin (5 μM final concentration). When appropriate, antagonists were added 10 min prior to agonist addition. After a 6-h incubation at 37° C., the media was aspirated and the cells washed with 200 μL of phosphate-buffered saline followed by a second aspiration. Cells were lysed with 25 μL 0.1× assay buffer (10 mM Na-phosphate, pH 8, 0.2 mM MgSO4, 0.01 mM MnCl2) and incubated at rt for 10 min. […] Color was developed using 25 μL of 1 mg/mL substrate solution (chlorophenolred β-D galactopyranoside; Roche Molecular Biochemicals, Indianapolis, In.).

[3] = SK-N-MC cells expressing human H3 receptor and CRE-β-galactosidase reporter, read-out: pA2 (converted)

T2 sequence (P31652 whole entry): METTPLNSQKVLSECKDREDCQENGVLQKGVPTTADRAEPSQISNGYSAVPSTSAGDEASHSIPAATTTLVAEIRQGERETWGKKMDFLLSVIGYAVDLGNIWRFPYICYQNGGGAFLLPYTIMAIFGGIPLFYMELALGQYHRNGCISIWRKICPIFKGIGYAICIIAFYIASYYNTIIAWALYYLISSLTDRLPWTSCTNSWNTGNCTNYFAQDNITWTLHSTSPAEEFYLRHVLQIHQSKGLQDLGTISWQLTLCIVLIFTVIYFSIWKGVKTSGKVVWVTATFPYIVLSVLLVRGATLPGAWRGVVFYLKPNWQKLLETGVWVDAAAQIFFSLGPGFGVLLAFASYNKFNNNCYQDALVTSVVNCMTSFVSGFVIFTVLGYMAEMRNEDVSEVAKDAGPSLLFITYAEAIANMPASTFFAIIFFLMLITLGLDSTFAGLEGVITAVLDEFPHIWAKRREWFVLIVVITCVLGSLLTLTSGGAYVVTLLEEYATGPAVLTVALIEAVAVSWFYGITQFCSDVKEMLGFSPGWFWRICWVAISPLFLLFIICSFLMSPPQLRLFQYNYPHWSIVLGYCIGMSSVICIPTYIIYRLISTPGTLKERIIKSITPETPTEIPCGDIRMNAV
T3 sequence (P31645 whole entry): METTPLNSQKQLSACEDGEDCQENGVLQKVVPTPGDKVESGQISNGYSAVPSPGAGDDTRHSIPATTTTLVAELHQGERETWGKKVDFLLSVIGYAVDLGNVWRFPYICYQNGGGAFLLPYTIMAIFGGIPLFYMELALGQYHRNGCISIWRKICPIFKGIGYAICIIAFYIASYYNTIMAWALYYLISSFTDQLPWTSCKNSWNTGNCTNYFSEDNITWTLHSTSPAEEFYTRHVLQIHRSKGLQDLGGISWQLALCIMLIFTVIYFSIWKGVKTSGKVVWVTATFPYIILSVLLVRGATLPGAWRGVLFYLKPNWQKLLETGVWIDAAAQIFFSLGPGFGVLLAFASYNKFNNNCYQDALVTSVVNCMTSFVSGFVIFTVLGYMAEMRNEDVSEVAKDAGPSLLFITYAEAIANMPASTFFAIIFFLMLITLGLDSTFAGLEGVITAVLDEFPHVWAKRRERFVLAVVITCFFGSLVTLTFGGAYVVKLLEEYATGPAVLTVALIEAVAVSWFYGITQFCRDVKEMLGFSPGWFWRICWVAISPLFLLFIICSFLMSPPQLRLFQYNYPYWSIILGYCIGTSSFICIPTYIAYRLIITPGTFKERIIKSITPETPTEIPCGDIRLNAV
T1 sequence (Q9Y5N1 whole entry): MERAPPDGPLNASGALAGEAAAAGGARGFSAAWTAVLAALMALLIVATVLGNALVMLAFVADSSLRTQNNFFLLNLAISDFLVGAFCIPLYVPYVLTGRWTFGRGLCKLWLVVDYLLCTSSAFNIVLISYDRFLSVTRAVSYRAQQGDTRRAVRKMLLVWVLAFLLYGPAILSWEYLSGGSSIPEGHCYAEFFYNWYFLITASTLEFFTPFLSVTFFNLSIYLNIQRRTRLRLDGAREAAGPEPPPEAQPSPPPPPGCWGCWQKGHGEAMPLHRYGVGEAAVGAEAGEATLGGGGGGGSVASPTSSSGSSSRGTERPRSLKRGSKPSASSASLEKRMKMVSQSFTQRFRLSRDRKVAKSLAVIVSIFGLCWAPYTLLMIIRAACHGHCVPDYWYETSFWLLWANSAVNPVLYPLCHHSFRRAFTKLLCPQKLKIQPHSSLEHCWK

Structure (SMILES) | Ki (human H3 receptor [1]) [nM] | Ki (Rat SERT; read-out: Rat SERT Ki) [nM] | Ki (human SERT) [nM] | Kb (human H3 receptor [2]; [3]) [nM] | Ki (Rat SERT; Rat SERT Ki (nM)) [nM] | Kb (human H3 receptor [2]; pA2, SK-N-MC cells expressing human H3 receptor and CRE-β-galactosidase reporter) [nM]
COc1ccc(C2CN(C)Cc3cc(OCCCN4CC[C@@H](N(C)C)C4)ccc32)cc1 (stereo in doubt) [Example 10, (1-{3-[4-(4-Methoxy-phenyl)-2-methyl-1,2,3,4-tetrahydro-isoquinolin-7-yloxy]-propyl}-pyrrolidin-3-yl)-dimethyl-amine] | 1 | 4 | 5 | 3.98 | – | –
COc1ccc(C2CN(C)Cc3cc(OCCCN4CCOCC4)ccc32)cc1 (stereo not drawn) [Example 9, 4-(4-Methoxy-phenyl)-2-methyl-7-(3-morpholin-4-yl-propoxy)-1,2,3,4-tetrahydro-isoquinoline] | 3 | 5 | 6 | 2.51 | – | –
CN1Cc2cc(OCCCN3CCOCC3)ccc2C(c2ccc(OC(F)F)cc2)C1 (stereo not drawn) [Example 214, 4-(4-Difluoromethoxy-phenyl)-2-methyl-7-(3-morpholin-4-yl-propoxy)-1,2,3,4-tetrahydro-isoquinoline] | 17 | 3 | 12 | 6.31 | – | –
CSc1ccc(C2CN(C)Cc3cc(OCC4CN(C5CC5)CCO4)ccc32)cc1 (mixture of isomers) [Example 263, 7-(4-Cyclopropyl-morpholin-2-ylmethoxy)-2-methyl-4-(4-methylsulfanyl-phenyl)-1,2,3,4-tetrahydro-isoquinoline] | 11 | 11 | – | 7.94 | – | –
C(#Cc1ccc2c(c1)CNCC2c1cccnc1)CCN1CCCCC1 (stereo not drawn) [Example 271, 7-(4-Piperidin-1-yl-but-1-ynyl)-4-pyridin-3-yl-1,2,3,4-tetrahydro-isoquinoline] | 0.7 | 413 | 3000 | 0.251 | – | –
COc1ccc(C2CN(C)Cc3cc(OCCCN4CCC(O)CC4)ccc32)cc1 (stereo not drawn) [Example 21, 1-{3-[4-(4-Methoxy-phenyl)-2-methyl-1,2,3,4-tetrahydro-isoquinolin-7-yloxy]-propyl}-piperidin-4-ol] | 9 | 2 | 4 | 12.6 | – | –
CCN1Cc2cc(OCCCN3CCC(F)CC3)ccc2C(c2ccc(OC)cc2)C1 (stereo not drawn) [Example 146, 2-Ethyl-7-[3-(4-fluoro-piperidin-1-yl)-propoxy]-4-(4-methoxy-phenyl)-1,2,3,4-tetrahydro-isoquinoline] | 3 | 12 | 12 | 2 | – | –
CN1Cc2cc(OCCCN3CCOCC3)ccc2C(c2ccc([S+](C)[O-])cc2)C1 (single isomer, unassigned) [Example 165A, 4-(4-Methanesulfinyl-phenyl)-2-methyl-7-(3-morpholin-4-yl-propoxy)-1,2,3,4-tetrahydro-isoquinoline] | 2 | 91 | – | 3.16 | – | –
CN1Cc2cc(OCCCN3CCC(F)CC3)ccc2C(c2cc(Cl)ccc2Cl)C1 (stereo not drawn) [Example 55, 4-(2,5-Dichloro-phenyl)-7-[3-(4-fluoro-piperidin-1-yl)-propoxy]-2-methyl-1,2,3,4-tetrahydro-isoquinoline] | 8 | – | – | – | 209 | 5.01
COc1ccc(C2CN(C)Cc3cc(OCCCN4CCCCC4)c(C)cc32)cc1 (stereo not drawn) [Example 265, 4-(4-Methoxy-phenyl)-2,6-dimethyl-7-(3-piperidin-1-yl-propoxy)-1,2,3,4-tetrahydro-isoquinoline] | 2 | 13 | – | 1.58 | – | –
CSc1ccc(C2CN(C)Cc3cc(OCC4CN(C5CCC5)C4)ccc32)cc1 (stereo not drawn) [Example 238, 7-(1-Cyclobutyl-azetidin-3-ylmethoxy)-2-methyl-4-(4-methylsulfanyl-phenyl)-1,2,3,4-tetrahydro-isoquinoline] | 5 | 4 | – | 12.6 | – | –
COc1ccc(C2CN(C)Cc3cc(OC[C@@H]4CN(C5CC5)CCO4)ccc32)cc1 (single isomer, unassigned) [Example 260A, 7-(4-Cyclopropyl-morpholin-2S-ylmethoxy)-4-(4-methoxy-phenyl)-2-methyl-1,2,3,4-tetrahydro-isoquinoline] | 2 | 17 | – | 1 | – | –
CSc1ccc(C2CN(C)Cc3cc(OCC4CN(C5CC5)C4)ccc32)cc1 (stereo not drawn) [Example 237, 7-(1-Cyclopropyl-azetidin-3-ylmethoxy)-2-methyl-4-(4-methylsulfanyl-phenyl)-1,2,3,4-tetrahydro-isoquinoline] | 5 | 3 | – | 15.8 | – | –
COc1ccc(C2CNCc3cc(OCCCN4CCC(F)CC4)ccc32)cc1 (stereo not drawn) [Example 147, 7-[3-(4-Fluoro-piperidin-1-yl)-propoxy]-4-(4-methoxy-phenyl)-1,2,3,4-tetrahydro-isoquinoline] | 9 | 18 | – | 10 | – | –
COc1ccc(C2CNCc3cc(OCCCN4CCCCC4)ccc32)cc1 (stereo not drawn) [Example 69, 4-(4-Methoxy-phenyl)-7-(3-piperidin-1-yl-propoxy)-1,2,3,4-tetrahydro-isoquinoline] | 1 | 9 | – | 0.794 | – | –
CN1Cc2cc(OCCCN3CCC(F)CC3)ccc2C(c2ccc(Br)cc2)C1 (stereo not drawn) [Example 213, 4-(4-Bromo-phenyl)-7-[3-(4-fluoro-piperidin-1-yl)-propoxy]-2-methyl-1,2,3,4-tetrahydro-isoquinoline] | 11 | 6 | – | 10 | – | –
CCCN1CCC(COc2ccc3c(c2)CN(C)CC3c2ccc(OC)cc2)CC1 (stereo not drawn) [Example 85, 4-(4-Methoxy-phenyl)-2-methyl-7-(1-propyl-piperidin-4-ylmethoxy)-1,2,3,4-tetrahydro-isoquinoline] | 8 | 7 | – | 6.31 | – | –
COc1ccc(C2CN(C3CC3)Cc3cc(OCCCN4CCCCC4)ccc32)cc1 (stereo not drawn) [Example 73, 2-Cyclopropyl-4-(4-methoxy-phenyl)-7-(3-piperidin-1-yl-propoxy)-1,2,3,4-tetrahydro-isoquinoline] | 2 | 83 | – | 1 | – | –
COc1ccc(C2CN(C)Cc3cc(OC[C@H]4CN(C(C)C)CCO4)ccc32)cc1 (single isomer, unassigned) [Example 256A, 7-(4-Isopropyl-morpholin-2R-ylmethoxy)-4-(4-methoxy-phenyl)-2-methyl-1,2,3,4-tetrahydro-isoquinoline] | 7 | 12 | – | 5.01 | – | –
CN1Cc2cc(OCCCN3CCC(F)CC3)ccc2C(c2ccc(Cl)c(Cl)c2)C1 (stereo not drawn) [Example 58, 4-(3,4-Dichloro-phenyl)-7-[3-(4-fluoro-piperidin-1-yl)-propoxy]-2-methyl-1,2,3,4-tetrahydro-isoquinoline] | 9 | 8 | – | 31.6 | – | –
CSc1ccc(C2CN(C)Cc3cc(OCC4CN(C(C)C)CCO4)ccc32)cc1 (mixture of isomers) [Example 262, 7-(4-Isopropyl-morpholin-2-ylmethoxy)-2-methyl-4-(4-methylsulfanyl-phenyl)-1,2,3,4-tetrahydro-isoquinoline] | 10 | 5 | – | 6.31 | – | –
COc1ccc(C2CN(C)Cc3cc(OCCCN4CCN(c5ccncc5)CC4)ccc32)cc1 (stereo not drawn) [Example 204, 4-(4-Methoxy-phenyl)-2-methyl-7-[3-(4-pyridin-4-yl-piperazin-1-yl)-propoxy]-1,2,3,4-tetrahydro-isoquinoline] | 2 | 10 | 5 | – | – | –
